Experiments:
JAK1 = target: T1, JAK1 (Homo sapiens, UniProt P23458); assay: JAK1 enzyme inhibition test (LANCE method); assay type: biochemical; details: test compound 1 μM; for inhibition at 1 µM: read-out: Inhibitory rate (%) JAK1 1 μM
T1 construct: purchased Invitrogen
Procedure: JAK1 Enzyme Inhibition Test
(§1) JAK1 enzyme inhibitory activity of test compounds was measured by LANCE method (PerkinElmer). First, a test compound diluted with assay buffer (50 mM HEPES (pH=7.5), 10 mM MgCl2, 1 mM EGTA, 2 mM DTT, 0.01% Tween20, 0.01% BSA) was added to 384-well plate at 2 μL each. Then, a JAK1 (Invitrogen) solution and a fluorescence-labeled peptide substrate (ULight-JAK1, PerkinElmer) solution diluted with assay buffer at 187.5 ng/mL and 300 nM, respectively were added at 2 μL each. Then, enzyme reaction was started by adding 2 μL each of ATP solution prepared with assay buffer at 150 μM. After the reaction at room temperature for 1 hr, Detection Buffer (PerkinElmer) prepared to be 20 mM EDTA, 4 nM europium-labeled anti-phosphotyrosine antibody (PerkinElmer) was added at 6 μL each. After standing at room temperature for 1 hr, fluorescence intensity (excitation wavelength 340 nm, fluorescence wavelength 665 nm, delay time 100 microsecond) was measured by a plate reader, Envision (PerkinElmer). The inhibitory activity of each compound was calculated as relative value where fluorescence intensity of a well without enzyme is considered as 100% inhibition.

Tyk2 = target: T2, Tyk2 (Homo sapiens, UniProt P29597); assay: Tyk2 enzyme inhibition test (LANCE method); assay type: biochemical; details: test compound 1 μM; for inhibition at 1 µM: read-out: Inhibitory rate (%) Tyk2 1 μM
T2 construct: purchased Invitrogen
Procedure: Tyk2 Enzyme Inhibition Test
as §1, with “Tyk2 enzyme” for “JAK1 enzyme”, “a Tyk2” for “a JAK1”, “at 375” for “at 187.5”, “at 30” for “at 150”

T1 sequence (P23458 whole entry): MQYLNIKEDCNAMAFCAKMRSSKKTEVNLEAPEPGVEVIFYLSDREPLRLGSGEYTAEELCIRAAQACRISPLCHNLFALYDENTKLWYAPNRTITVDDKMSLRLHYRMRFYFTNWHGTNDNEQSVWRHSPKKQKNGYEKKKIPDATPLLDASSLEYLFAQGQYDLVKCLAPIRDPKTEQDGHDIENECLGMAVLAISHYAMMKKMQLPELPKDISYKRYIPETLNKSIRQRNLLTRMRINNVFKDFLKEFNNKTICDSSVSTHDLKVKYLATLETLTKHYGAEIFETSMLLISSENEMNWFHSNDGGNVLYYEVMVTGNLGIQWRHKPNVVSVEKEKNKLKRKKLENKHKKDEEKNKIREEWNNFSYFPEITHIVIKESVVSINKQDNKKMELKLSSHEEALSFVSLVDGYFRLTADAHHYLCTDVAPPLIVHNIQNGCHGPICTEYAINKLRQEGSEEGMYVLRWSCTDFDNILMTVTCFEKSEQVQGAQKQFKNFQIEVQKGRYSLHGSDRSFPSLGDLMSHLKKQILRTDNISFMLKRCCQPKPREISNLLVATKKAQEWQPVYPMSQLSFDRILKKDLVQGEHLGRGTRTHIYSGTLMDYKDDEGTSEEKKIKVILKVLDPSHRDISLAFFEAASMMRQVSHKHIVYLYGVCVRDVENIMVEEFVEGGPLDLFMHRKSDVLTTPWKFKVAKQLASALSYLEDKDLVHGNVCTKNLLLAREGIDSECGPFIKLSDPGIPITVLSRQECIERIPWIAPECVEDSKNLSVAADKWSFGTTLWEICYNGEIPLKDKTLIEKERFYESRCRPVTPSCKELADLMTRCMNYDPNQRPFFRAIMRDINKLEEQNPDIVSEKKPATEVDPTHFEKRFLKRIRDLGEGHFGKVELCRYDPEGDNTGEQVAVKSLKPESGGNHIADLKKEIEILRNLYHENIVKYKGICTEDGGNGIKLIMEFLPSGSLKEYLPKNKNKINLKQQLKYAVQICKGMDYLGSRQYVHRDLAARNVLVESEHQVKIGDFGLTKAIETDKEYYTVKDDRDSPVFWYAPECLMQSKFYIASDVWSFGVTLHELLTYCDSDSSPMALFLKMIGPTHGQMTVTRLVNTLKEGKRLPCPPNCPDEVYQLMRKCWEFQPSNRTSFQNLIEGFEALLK
T2 sequence (P29597 whole entry): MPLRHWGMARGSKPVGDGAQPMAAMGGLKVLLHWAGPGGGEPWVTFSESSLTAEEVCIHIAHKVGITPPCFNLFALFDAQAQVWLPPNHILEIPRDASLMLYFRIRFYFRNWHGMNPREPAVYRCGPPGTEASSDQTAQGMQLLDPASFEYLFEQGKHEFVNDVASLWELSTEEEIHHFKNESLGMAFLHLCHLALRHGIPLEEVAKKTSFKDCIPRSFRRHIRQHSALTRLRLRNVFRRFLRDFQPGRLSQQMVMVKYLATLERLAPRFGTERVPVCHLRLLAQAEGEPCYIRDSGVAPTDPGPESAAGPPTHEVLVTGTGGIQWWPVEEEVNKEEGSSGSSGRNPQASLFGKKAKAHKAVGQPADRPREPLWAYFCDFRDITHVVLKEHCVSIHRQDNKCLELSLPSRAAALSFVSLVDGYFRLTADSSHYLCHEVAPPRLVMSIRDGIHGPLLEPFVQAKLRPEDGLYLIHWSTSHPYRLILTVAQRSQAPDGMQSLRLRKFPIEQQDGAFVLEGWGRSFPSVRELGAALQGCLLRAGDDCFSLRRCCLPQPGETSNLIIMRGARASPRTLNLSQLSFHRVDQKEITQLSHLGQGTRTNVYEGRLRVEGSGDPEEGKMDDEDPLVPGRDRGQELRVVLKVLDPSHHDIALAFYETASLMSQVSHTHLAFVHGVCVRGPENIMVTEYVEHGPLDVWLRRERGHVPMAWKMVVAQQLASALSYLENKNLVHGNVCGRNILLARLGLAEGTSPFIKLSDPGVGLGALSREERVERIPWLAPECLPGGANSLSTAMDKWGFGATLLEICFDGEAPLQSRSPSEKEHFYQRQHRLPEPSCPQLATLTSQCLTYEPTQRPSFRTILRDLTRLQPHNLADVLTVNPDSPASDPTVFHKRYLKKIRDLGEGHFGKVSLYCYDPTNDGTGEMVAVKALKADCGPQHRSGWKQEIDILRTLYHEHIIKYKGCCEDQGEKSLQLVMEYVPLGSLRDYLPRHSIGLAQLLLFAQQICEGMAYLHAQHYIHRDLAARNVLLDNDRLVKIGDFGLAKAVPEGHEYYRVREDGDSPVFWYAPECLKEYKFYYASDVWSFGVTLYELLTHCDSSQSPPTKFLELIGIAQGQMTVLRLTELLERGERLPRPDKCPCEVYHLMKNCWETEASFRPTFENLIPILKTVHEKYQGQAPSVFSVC

Row | SMILES | inhibition at 1 µM (JAK1) | inhibition at 1 µM (Tyk2) | Inhibitory rate (%) Tyk2 1 μM (Tyk2) | Inhibitory rate (%) JAK1 1 μM (JAK1)
1 | O=c1[nH]ccc2c1c(-c1ccccc1F)nn2C1CCCC1 [Example 56, 1-cyclopentyl-3-(2-fluorophenyl)-1,5-dihydro-4H-pyrazolo[4,3-c]pyridin-4-one] | 13% | 31% | – | –
2 | O=c1[nH]ccc2c1c(-c1ccc([N+](=O)[O-])cc1)nn2C1CCCC1 [Example 57, 1-cyclopentyl-3-(4-nitrophenyl)-1,5-dihydro-4H-pyrazolo[4,3-c]pyridin-4-one] | 88% | 81% | – | –
3 | O=C1Cc2cc(-c3nn(C4CCCC4)c4cc[nH]c(=O)c34)ccc2N1 [Example 58, 1-cyclopentyl-3-(2-oxo-2,3-dihydro-1H-indol-5-yl)-1,5-dihydro-4H-pyrazolo[4,3-c]pyridin-4-one] | 86% | 91% | – | –
4 | O=c1[nH]ccc2c1c(-c1ccc3nonc3c1)nn2C1CCCC1 [Example 59, 3-(2,1,3-benzoxadiazol-5-yl)-1-cyclopentyl-1,5-dihydro-4H-pyrazolo[4,3-c]pyridin-4-one] | 66% | 56% | – | –
5 | CC(=O)c1c[nH]c(=O)c2c(-c3csc(C(N)=O)c3)cn(C3CCCC3)c12 [Example 60, 4-(7-acetyl-1-cyclopentyl-4-oxo-4,5-dihydro-1H-pyrrolo[3,2-c]pyridin-3-yl)thiophene-2-carboxamide] | 50% | 89% | – | –
6 | NC(=O)c1cc(-c2cn(C3CCCC3)c3c(C(=O)O)c[nH]c(=O)c23)cs1 [Example 61, 3-(5-carbamoyl-3-thienyl)-1-cyclopentyl-4-oxo-4,5-dihydro-1H-pyrrolo[3,2-c]pyridine-7-carboxylic acid] | 8% | 41% | – | –
7 | NC(=O)c1cc(-c2cn(C3CCCC3)c3c(C(N)=O)c[nH]c(=O)c23)cs1 [Example 62, 3-(5-carbamoyl-3-thienyl)-1-cyclopentyl-4-oxo-4,5-dihydro-1H-pyrrolo[3,2-c]pyridine-7-carboxamide] | 69% | 81% | – | –
8 | CNC(=O)c1cc(-c2cn(C3CCCC3)c3c(C(=O)NC)c[nH]c(=O)c23)cs1 [Example 63, 1-cyclopentyl-N-methyl-3-(5-(methylcarbamoyl)-3-thienyl)-4-oxo-4,5-dihydro-1H-pyrrolo[3,2-c]pyridine-7-carboxamide] | 59% | 51% | – | –
9 | NC(=O)Cc1ccc(-c2nn(-c3c(F)cccc3F)c3cc[nH]c(=O)c23)cc1 [Example 72, 2-(4-(1-(2,6-difluorophenyl)-4-oxo-4,5-dihydro-1H-pyrazolo[4,3-c]pyridin-3-yl)phenyl)acetamide] | 97% | 99% | – | –
10 | COC(=O)c1c[nH]c(=O)c2c(-c3csc(C#N)c3)cn(C3CCCC3)c12 [Example 73, methyl 3-(5-cyano-3-thienyl)-1-cyclopentyl-4-oxo-4,5-dihydro-1H-pyrrolo[3,2-c]pyridine-7-carboxylate] | 45% | 83% | – | –
11 | COC(=O)c1c[nH]c(=O)c2c(-c3csc(-c4noc(=O)[nH]4)c3)cn(C3CCCC3)c12 [Example 74, methyl 1-cyclopentyl-4-oxo-3-(5-(5-oxo-4,5-dihydro-1,2,4-oxadiazol-3-yl)-3-thienyl)-4,5-dihydro-1H-pyrrolo[3,2-c]pyridine-7-carboxylate] | 44% | 85% | – | –
12 | NS(=O)(=O)c1ccc(-n2nc(C3CCCC3)c3cc[nH]c(=O)c32)cc1 [Example 75, 4-(3-cyclopentyl-7-oxo-6,7-dihydro-1H-pyrazolo[3,4-c]pyridin-1-yl)benzenesulfonamide] | 93% | 84% | – | –
13 | COC(=O)c1cc(-c2cn(C3CCCC3)c3c(C#N)c[nH]c(=O)c23)cs1 [Example 76, methyl 4-(7-cyano-1-cyclopentyl-4-oxo-4,5-dihydro-1H-pyrrolo[3,2-c]pyridin-3-yl)thiophene-2-carboxylate] | 92% | 99% | – | –
14 | N#Cc1c[nH]c(=O)c2c(-c3csc(C(=O)O)c3)cn(C3CCCC3)c12 [Example 77, 4-(7-cyano-1-cyclopentyl-4-oxo-4,5-dihydro-1H-pyrrolo[3,2-c]pyridin-3-yl)thiophene-2-carboxylic acid] | 96% | 99% | – | –
15 | N#Cc1c[nH]c(=O)c2c(-c3ccc(C(N)=O)cc3)cn(C3CCCC3)c12 [Example 81, 4-(7-cyano-1-cyclopentyl-4-oxo-4,5-dihydro-1H-pyrrolo[3,2-c]pyridin-3-yl)benzamide] | 62% | 97% | – | –
16 | NS(=O)(=O)c1ccc(-c2nn(C3CCOC3)c3cc[nH]c(=O)c23)cc1 (stereo not drawn) [Example 82, 4-(4-oxo-1-(tetrahydrofuran-3-yl)-4,5-dihydro-1H-pyrazolo[4,3-c]pyridin-3-yl)benzenesulfonamide] | 95% | – | 78% | –
17 | NS(=O)(=O)c1ccc(-c2nn(C3CCOC3)c3cc[nH]c(=O)c23)cc1 (stereo not drawn) [Example 83, 4-(4-oxo-1-(tetrahydrofuran-3-yl)-4,5-dihydro-1H-pyrazolo[4,3-c]pyridin-3-yl)benzenesulfonamide] | – | – | 89% | 97%
18 | NS(=O)(=O)c1ccc(-c2nn(C3CCOC3)c3cc[nH]c(=O)c23)cc1 (stereo not drawn) [Example 84, 4-(4-oxo-1-(tetrahydrofuran-3-yl)-4,5-dihydro-1H-pyrazolo[4,3-c]pyridin-3-yl)benzenesulfonamide] | – | – | 58% | 84%

The next lines start with the values.

Row | inhibition at 1 µM (JAK1) | inhibition at 1 µM (Tyk2) | Inhibitory rate (%) Tyk2 1 μM (Tyk2) | Inhibitory rate (%) JAK1 1 μM (JAK1) | SMILES
19 | 27% | 76% | – | – | N#Cc1c[nH]c(=O)c2c1c(C1CCCC1)nn2-c1csc(C(=O)O)c1 [Example 65, 4-(4-cyano-3-cyclopentyl-7-oxo-6,7-dihydro-1H-pyrazolo[3,4-c]pyridin-1-yl)thiophene-2-carboxylic acid]
20 | 66% | 92% | – | – | N#Cc1c[nH]c(=O)c2c1c(C1CCCC1)nn2-c1csc(C(N)=O)c1 [Example 66, 4-(4-cyano-3-cyclopentyl-7-oxo-6,7-dihydro-1H-pyrazolo[3,4-c]pyridin-1-yl)thiophene-2-carboxamide]
21 | 55% | 91% | – | – | NC(=O)c1cc(-n2nc(C3CCCC3)c3c(Br)c[nH]c(=O)c32)cs1 [Example 67, 4-(4-bromo-3-cyclopentyl-7-oxo-6,7-dihydro-1H-pyrazolo[3,4-c]pyridin-1-yl)thiophene-2-carboxamide]
22 | 4% | 67% | – | – | COC(=O)c1cc(-n2nc(-c3ccccc3C)c3c(C#N)c[nH]c(=O)c32)cs1 [Example 68, methyl 4-(4-cyano-3-(2-methylphenyl)-7-oxo-6,7-dihydro-1H-pyrazolo[3,4-c]pyridin-1-yl)thiophene-2-carboxylate]
23 | 28% | 92% | – | – | Cc1ccccc1-c1nn(-c2csc(C(=O)O)c2)c2c(=O)[nH]cc(C#N)c12 [Example 69, 4-(4-cyano-3-(2-methylphenyl)-7-oxo-6,7-dihydro-1H-pyrazolo[3,4-c]pyridin-1-yl)thiophene-2-carboxylic acid]
24 | 41% | 88% | – | – | Cc1ccccc1-c1nn(-c2csc(C(N)=O)c2)c2c(=O)[nH]cc(C#N)c12 [Example 70, 4-(4-cyano-3-(2-methylphenyl)-7-oxo-6,7-dihydro-1H-pyrazolo[3,4-c]pyridin-1-yl)thiophene-2-carboxamide]
25 | 23% | 75% | – | – | COC(=O)c1cc(-n2nc(-c3ccccc3C)c3c(Br)c[nH]c(=O)c32)cs1 [Example 78, methyl 4-(4-bromo-3-(2-methylphenyl)-7-oxo-6,7-dihydro-1H-pyrazolo[3,4-c]pyridin-1-yl)thiophene-2-carboxylate]
26 | 44% | 93% | – | – | Cc1ccccc1-c1nn(-c2csc(C(=O)O)c2)c2c(=O)[nH]cc(Br)c12 [Example 79, 4-(4-bromo-3-(2-methylphenyl)-7-oxo-6,7-dihydro-1H-pyrazolo[3,4-c]pyridin-1-yl)thiophene-2-carboxylic acid]
27 | 82% | 97% | – | – | Cc1ccccc1-c1nn(-c2csc(C(N)=O)c2)c2c(=O)[nH]cc(Br)c12 [Example 80, 4-(4-bromo-3-(2-methylphenyl)-7-oxo-6,7-dihydro-1H-pyrazolo[3,4-c]pyridin-1-yl)thiophene-2-carboxamide]
